The values that follow come from ChEMBL document CHEMBL3621115, “Discovery of 6-phenylimidazo[2,1-b]thiazole derivatives as a new type of FLT3 inhibitors” (Bioorg Med Chem Lett, 2015).

Usually IC50 stands for the concentration at which inhibition is half-maximal.

In one test the test system is MV4-11. As to the kind of experiment: Cytotoxicity against human MV4-11 cells assessed as cell viability after 72 hrs by MTT assay. The format is functional, cell-based. To be noted: MV4-11, 72 h. (In general: Formazan colour is commonly taken as a measure of viable cells.)
Another test relates to HeLa. As to the kind of experiment: Cytotoxicity against human HeLa cells assessed as cell viability after 72 hrs by MTT assay. It is filed as functional, cell-based.
Test [1] addresses T1, Receptor-type tyrosine-protein kinase FLT3 (Homo sapiens, UniProt P36888).
T1 sequence (P36888 whole entry): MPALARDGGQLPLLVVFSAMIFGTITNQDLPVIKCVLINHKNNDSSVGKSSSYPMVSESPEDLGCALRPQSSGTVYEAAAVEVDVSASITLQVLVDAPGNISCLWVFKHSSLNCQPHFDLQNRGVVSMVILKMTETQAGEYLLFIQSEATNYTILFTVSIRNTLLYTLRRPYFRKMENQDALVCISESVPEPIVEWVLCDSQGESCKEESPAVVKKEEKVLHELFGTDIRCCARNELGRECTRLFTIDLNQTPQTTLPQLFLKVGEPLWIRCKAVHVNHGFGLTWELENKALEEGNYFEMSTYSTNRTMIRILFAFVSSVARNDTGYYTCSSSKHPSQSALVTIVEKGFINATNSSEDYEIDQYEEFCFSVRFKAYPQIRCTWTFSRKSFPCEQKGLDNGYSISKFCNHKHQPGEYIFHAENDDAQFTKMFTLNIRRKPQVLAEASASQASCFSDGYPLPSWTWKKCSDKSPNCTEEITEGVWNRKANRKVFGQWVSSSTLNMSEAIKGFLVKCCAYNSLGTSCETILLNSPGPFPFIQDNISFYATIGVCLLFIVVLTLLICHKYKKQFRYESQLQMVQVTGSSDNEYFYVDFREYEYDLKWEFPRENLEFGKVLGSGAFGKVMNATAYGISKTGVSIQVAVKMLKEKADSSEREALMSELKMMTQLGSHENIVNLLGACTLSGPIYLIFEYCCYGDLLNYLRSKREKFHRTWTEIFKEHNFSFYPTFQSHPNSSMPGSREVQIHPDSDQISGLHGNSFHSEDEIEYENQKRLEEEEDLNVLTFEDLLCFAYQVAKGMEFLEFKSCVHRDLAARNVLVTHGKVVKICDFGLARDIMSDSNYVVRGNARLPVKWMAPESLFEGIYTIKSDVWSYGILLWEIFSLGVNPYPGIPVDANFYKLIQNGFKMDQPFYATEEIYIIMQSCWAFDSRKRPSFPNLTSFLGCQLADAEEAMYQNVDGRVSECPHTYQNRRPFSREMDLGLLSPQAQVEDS
Nature of the test: Inhibition of human recombinant Flt3.

In the case of `CCOC(=O)c1csc2nc(-c3ccc(NC(=O)CCl)cc3)cn12`, the IC50 was 9.07 µM with MV4-11 and above 20 µM in the test with HeLa.
Consider `CCCS(=O)(=O)Nc1ccc(-c2cn3c(C(=O)OCC)csc3n2)cc1`, for which the concentration for half-maximal inhibition (IC50) in the test on MV4-11 and with HeLa was above 20 µM each time.
Take `CCOC(=O)c1csc2nc(-c3ccc(NC(=O)c4ccco4)cc3)cn12`: the IC50 was 9.92 µM in the test with MV4-11 and above 20 µM in the test on HeLa.
Take `CC(C)(C)c1cc(NC(=O)Nc2ccc(-c3cn4c(C(=O)NCCS(C)(=O)=O)csc4n3)cc2)no1`: the half-maximal inhibitory concentration (IC50) was 0.0049 µM in the test with MV4-11, above 20 µM in the test with HeLa and 0.095 µM in test [1].
Take `CCOC(=O)c1csc2nc(-c3ccc(NS(=O)(=O)c4ccc(C)cc4)cc3)cn12`: the IC50 in the test on MV4-11 and in the test on HeLa was above 20 µM throughout.
Consider `CCOC(=O)c1csc2nc(-c3cccc(NC(=O)c4ccco4)c3)cn12`, for which the IC50 in the test with MV4-11 and in the test with HeLa was above 20 µM throughout.
Take `C=CC(=O)Nc1ccc(-c2cn3c(C(=O)OCC)csc3n2)cc1`: the IC50 in the test on MV4-11 is 2.93 µM; in the test on HeLa, above 20 µM.
In the case of `CNC(=O)c1cc(Oc2ccc(NC(=O)Nc3ccc(Cl)c(C(F)(F)F)c3)cc2)ccn1` [SORAFENIB], the results for the IC50 with MV4-11 and with HeLa were 0.007 µM and 5.23 µM, respectively.
The corresponding values for `CCOC(=O)c1csc2nc(-c3ccc(NC(=O)Nc4ccc(Br)cn4)cc3)cn12` are 2.44 µM and above 20 µM.
The corresponding values for `CCOC(=O)c1csc2nc(-c3cccc(NC(=O)CC)c3)cn12` are above 20 µM and above 20 µM.
Take `CN(C)CCNC(=O)c1csc2nc(-c3ccc(NC(=O)Nc4cc(C(C)(C)C)on4)cc3)cn12`: the IC50 in the test on MV4-11 stood at 0.0097 µM; with HeLa, 20 µM; in test [1] it was 0.022 µM.
Regarding `CC(C)(C)c1cc(NC(=O)Nc2ccc(-c3cn4c(C(=O)NCCN5CCOCC5)csc4n3)cc2)no1`, the IC50 in the test on MV4-11 was 0.0163 µM; in the test with HeLa it was above 20 µM.
Regarding `CCOC(=O)c1csc2nc(-c3cccc(NC(=O)CCl)c3)cn12`, the IC50 in the test on MV4-11 was determined as 17.7 µM; with HeLa, 20 µM.
With `CCOC(=O)c1csc2nc(-c3ccc(NC(=O)CC)cc3)cn12`, the results for the IC50 in the test with MV4-11 and in the test with HeLa were 9.52 µM and above 20 µM, respectively.
Regarding `CC(C)(C)c1cc(NC(=O)Nc2ccc(-c3cn4c(C(=O)OCCN5CCOCC5)csc4n3)cc2)no1`, the IC50 in the test with MV4-11 was 0.146 µM; in the test on HeLa, above 20 µM.
Consider `C=CC(=O)Nc1cccc(-c2cn3c(C(=O)OCC)csc3n2)c1`, for which the IC50 in the test with MV4-11 and in the test with HeLa was above 20 µM each time.
Take `CCOC(=O)c1csc2nc(-c3ccc(NC(=O)Nc4ccccc4)cc3)cn12`: the IC50 in the test on MV4-11 and with HeLa was above 20 µM each time.
For the compound `CCOC(=O)c1csc2nc(-c3ccc(NC(=O)Nc4cc(C(C)(C)C)on4)cc3)cn12`, the IC50 with MV4-11 is 0.274 µM; in the test with HeLa it was above 20 µM.
`CC(C)(C)c1cc(NC(=O)Nc2ccc(-c3cn4c(C(=O)NCCO)csc4n3)cc2)no1`: the IC50 is 0.0156 µM in the test on MV4-11 and above 20 µM with HeLa.
